# Patent US8530504B2, “Pyrazolothiazole compound” (Eisai R&D Management Co., Ltd., priority 2009, dated 2013)
# Molecular target: human CRFR1 (Homo sapiens (Human), UniProt P34998)
# Assay: CRFR1 Binding Test;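 further: nonspecific binding was determined with a 4,000-fold excess of unlabelled sauvagine and subtracted from every reading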
# Details: competition with 100 pM 125I-CRF, SPA method, membrane fraction of human CRFR1-expressing HEK293 cells; read-out: CRF1 receptor binding capacity IC50
# human CRFR1, sequence (P34998 24-415): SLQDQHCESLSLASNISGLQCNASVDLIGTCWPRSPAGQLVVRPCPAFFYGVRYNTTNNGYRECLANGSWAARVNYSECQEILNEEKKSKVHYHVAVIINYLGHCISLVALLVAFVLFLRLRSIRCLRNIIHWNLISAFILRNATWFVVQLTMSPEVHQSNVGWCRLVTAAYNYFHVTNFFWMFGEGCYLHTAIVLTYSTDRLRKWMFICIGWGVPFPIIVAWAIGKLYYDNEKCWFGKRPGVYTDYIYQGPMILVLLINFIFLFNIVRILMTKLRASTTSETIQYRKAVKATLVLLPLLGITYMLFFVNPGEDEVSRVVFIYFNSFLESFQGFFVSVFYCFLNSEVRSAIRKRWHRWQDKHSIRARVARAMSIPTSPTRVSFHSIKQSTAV
row,Structure (SMILES),IC50
1,"COCCN(c1c(OC)nn2c(-c3c(OC)cc(COC)cc3OC)csc12)C1CCC1 [Example 56, N-Cyclobutyl-3-[2,6-dimethoxy-4-(methoxymethyl)phenyl]-6-methoxy-N-(2-methoxyethyl)pyrazolo[5,1-b][1,3]thiazole-7-amine]",31 nM
2,"COCCCN(c1c(OC)nn2c(-c3c(Cl)cc(COC)cc3OC)csc12)C1CCCC1 [Example 73, 3-[2-Chloro-6-methoxy-4-(methoxymethyl)phenyl]-N-cyclopentyl-6-methoxy-N-(3-methoxypropyl)pyrazolo[5,1-b][1,3]thiazole-7-amine]",66 nM
3,"CCCN(c1c(OC)nn2c(-c3c(OC)cc(C)cc3OC)csc12)C1CCOCC1 [Example 17, 3-(2,6-Dimethoxy-4-methylphenyl)-6-methoxy-N-propyl-N-(tetrahydro-2H-pyran-4-yl)pyrazolo[5,1-b][1,3]thiazole-7-amine]",56 nM
4,"COCc1cc(OC)c(-c2c(C)sc3c(N(CC4CC4)CC4CCOC4)c(OC)nn23)c(OC)c1 (centres unmarked) [Example 8, Cyclopropylmethyl-[3-(2,6-dimethoxy-4-methoxymethyl-phenyl)-6-methoxy-2-methyl-pyrazolo[5,1-b][1,3]thiazol-7-yl]-(tetrahydro-furan-3-ylmethyl)-amine]",51 nM
5,"COc1cc(C(C)OC)cc(OC)c1-c1csc2c(N(CC3CC3)CC3CCOC3)c(OC)nn12 (centres unmarked) [Example 19, N-(Cyclopropylmethyl)-3-[2,6-dimethoxy-4-(1-methoxyethyl)phenyl]-6-methoxy-N-(tetrahydrofuran-3-ylmethyl)pyrazolo[5,1-b][1,3]thiazole-7-amine]",52 nM
6,"COCc1cc(OC)c(-c2csc3c(N(C4CCC4)C4CCOC4)c(OC)nn23)c(OC)c1 (centres unmarked) [Example 67, N-Cyclobutyl-3-[2,6-dimethoxy-4-(methoxymethyl)phenyl]-6-methoxy-N-(tetrahydrofuran-3-yl)pyrazolo[5,1-b][1,3]thiazole-7-amine]",52 nM
7,CCCCN(c1c(OC)nn2c(-c3c(OC)cc(C=O)cc3OC)csc12)C1CCOCC1 [Example 103],101 nM
8,"CCCN(Cc1ccncc1)c1c(OC)nn2c(-c3c(OC)cc(COC)cc3OC)csc12 [Example 44, 3-[2,6-Dimethoxy-4-(methoxymethyl)phenyl]-6-methoxy-N-propyl-N-(pyridin-4-ylmethyl)pyrazolo[5,1-b][1,3]thiazole-7-amine]",53 nM
9,"CCCCN(c1c(OCC)nn2c(-c3c(OC)cc(COC)cc3OC)csc12)C1CCOCC1 [Example 82, N-Butyl-3-[2,6-dimethoxy-4-(methoxymethyl)phenyl]-6-ethoxy-N-(tetrahydro-2H-pyran-4-yl)-pyrazolo[5,1-b][1,3]thiazole-7-amine]",63 nM
10,"CCCN(c1cccnc1)c1c(OC)nn2c(-c3c(OC)cc(COC)cc3OC)csc12 [Example 87, 3-[2,6-Dimethoxy-4-(methoxymethyl)phenyl]-6-methoxy-N-propyl-N-pyridin-3-ylpyrazolo[5,1-b][1,3]thiazole-7-amine]",36 nM
11,"COCCN(c1c(OC)nn2c(-c3c(OC)cc(C#N)cc3OC)csc12)C1CCCC1 [Example 74, 4-{7-[Cyclopentyl(2-methoxyethyl)amino]-6-methoxypyrazolo[5,1-b][1,3]thiazol-3-yl}-3,5-dimethoxybenzonitrile]",52 nM
12,"COCCCN(c1c(OC)nn2c(-c3c(OC)cc(COC)cc3OC)csc12)C1CCC1 [Example 62, N-Cyclobutyl-3-[2,6-dimethoxy-4-(methoxymethyl)phenyl]-6-methoxy-N-(3-methoxypropyl)pyrazolo[5,1-b][1,3]thiazole-7-amine]",73 nM
13,"COCCCN(CC1CC1)c1c(OC)nn2c(-c3c(OC)cc(COC)cc3OC)csc12 [Example 32, N-(Cyclopropylmethyl)-3-[2,6-dimethoxy-4-(methoxymethyl)phenyl]-6-methoxy-N-(3-methoxypropyl)pyrazolo[5,1-b][1,3]thiazole-7-amine]",57 nM
14,"COc1cc(C)cc(OC)c1-c1csc2c(N(CC3CC3)C3CCOCC3)c(OC)nn12 [Example 25, N-(Cyclopropylmethyl)-3-(2,6-dimethoxy-4-methylphenyl)-6-methoxy-N-(tetrahydro-2H-pyran-4-yl)pyrazolo[5,1-b][1,3]thiazole-7-amine]",43 nM
15,"COCCN(CC(C)C)c1c(OC)nn2c(-c3c(OC)cc(COC)cc3OC)csc12 [Example 55, 3-[2,6-Dimethoxy-4-(methoxymethyl)phenyl]-N-isobutyl-6-methoxy-N-(2-methoxyethyl)pyrazolo[5,1-b][1,3]thiazole-7-amine]",19 nM
16,"COCCCN(c1c(OC)nn2c(-c3c(OC)cc(C4CC4)cc3OC)csc12)C1CCCC1 [Example 69, N-Cyclopentyl-3-(4-cyclopropyl-2,6-dimethoxyphenyl)-6-methoxy-N-(3-methoxypropyl)pyrazolo[5,1-b][1,3]-thiazole-7-amine]",48 nM

row,Structure (SMILES),IC50
1,"CCCN(c1c(OC)nn2c(-c3c(OC)cc(COC)cc3OC)c(CC)sc12)C1CCOCC1 [Example 9, [3-(2,6-Dimethoxy-4-methoxymethyl-phenyl)-2-ethyl-6-methoxy-pyrazolo[5,1-b][1,3]thiazol-7-yl]-propyl-(tetrahydro-pyran-4-yl)-amine]",116 nM
2,"CCN(CC1C2COCC21)c1c(OC)nn2c(-c3c(OC)cc(C4CC4)cc3OC)csc12 (single isomer, unassigned; diastereomer 1) [Example 97, 3-(4-Cyclopropyl-2,6-dimethoxyphenyl)-N-ethyl-6-methoxy-N-[3-oxabicyclo[3.1.0]hex-6-ylmethyl]pyrazolo[5,1-b][1,3]thiazole-7-amine (diastereomer 1)]",80 nM
3,"CCCN(CCC)c1c(OC)nn2c(-c3c(OC)cc(COC)cc3OC)csc12 [Example 24, 3-[2,6-Dimethoxy-4-(methoxymethyl)phenyl]-6-methoxy-N,N-dipropylpyrazolo[5,1-b][1,3]thiazole-7-amine]",26 nM
4,"CCCN(c1c(OC)nn2c(-c3c(OC)cc(CC)cc3OC)csc12)C1CCOCC1 [Example 22, [3-(4-Ethyl-2,6-dimethoxyphenyl)-6-methoxypyrazolo[5,1-b][1,3]thiazol-7-yl]-propyl-(tetrahydro-pyran-4-yl)amine]",64 nM
5,"COCc1cc(OC)c(-c2csc3c(N(CCCF)Cc4cccnc4)c(OC)nn23)c(OC)c1 [Example 71, 3-[2,6-Dimethoxy-4-(methoxymethyl)phenyl]-N-(3-fluoropropyl)-6-methoxy-N-(pyridin-3-ylmethyl)-pyrazolo[5,1-b][1,3]thiazole-7-amine]",58 nM
6,"COCc1cc(OC)c(-c2csc3c(N(CC4CC4)CC4C5COCC54)c(OC)nn23)c(OC)c1 (single isomer, unassigned; diastereomer 2) [Example 96, N-(Cyclopropylmethyl)-3-[2,6-dimethoxy-4-(methoxymethyl)phenyl]-6-methoxy-N-[3-oxabicyclo[3.1.0]hex-6-ylmethyl]-pyrazolo[5,1-b][1,3]thiazole-7-amine (diastereomer 2)]",62 nM
7,"COCCN(CC1CCC1)c1c(OC)nn2c(-c3c(OC)cc(COC)cc3OC)csc12 [Example 48, N-(Cyclobutylmethyl)-3-[2,6-dimethoxy-4-(methoxymethyl)phenyl]-6-methoxy-N-(2-methoxyethyl)pyrazolo[5,1-b][1,3]thiazole-7-amine]",25 nM
8,"COc1cc(C)cc(OC)c1-c1csc2c(N(CC3CC3)CC3CCOC3)c(OC)nn12 (centres unmarked) [Example 26, N-(Cyclopropylmethyl)-3-(2,6-dimethoxy-4-methylphenyl)-6-methoxy-N-(tetrahydrofuran-3-ylmethyl)pyrazolo[5,1-b][1,3]thiazole-7-amine]",33 nM
9,"CCOCc1cc(OC)c(-c2csc3c(N(CC4CCC4)C4CCOC4)c(OC)nn23)c(OC)c1 (centres unmarked) [Example 47, N-(Cyclobutylmethyl)-3-[4-(ethoxymethyl)-2,6-dimethoxyphenyl]-6-methoxy-N-(tetrahydrofuran-3-yl)pyrazolo[5,1-b][1,3]thiazole-7-amine]",32 nM
10,"CCOCc1cc(OC)c(-c2csc3c(N(CCCF)C4CCOCC4)c(OC)nn23)c(OC)c1 [Example 35, [3-(4-Ethoxymethyl-2,6-dimethoxy-phenyl)-6-methoxy-pyrazolo[5,1-b][1,3]thiazol-7-yl]-(3-fluoro-propyl)-(tetrahydro-pyran-4-yl)-amine]",89 nM
11,"CCCN(CCCOC)c1c(OC)nn2c(-c3c(OC)cc(COC)cc3OC)csc12 [Example 39, 3-[2,6-Dimethoxy-4-(methoxymethyl)phenyl]-6-methoxy-N-(3-methoxypropyl)-N-propylpyrazolo[5,1-b][1,3]thiazole-7-amine]",57 nM
12,CCCN(CCC)c1c(C)nn2c(-c3c(OC)cc(COC)cc3OC)c(SC)sc12 [Example 2],39 nM
13,"COCc1cc(OC)c(-c2csc3c(N(CCCF)Cc4ccncc4)c(OC)nn23)c(OC)c1 [Example 70, 3-[2,6-Dimethoxy-4-(methoxymethyl)phenyl]-N-(3-fluoropropyl)-6-methoxy-N-(pyridin-4-ylmethyl)-pyrazolo[5,1-b][1,3]thiazole-7-amine]",61 nM
14,"CCCCN(c1c(OC)nn2c(-c3c(OC)cc(COC(C)C)cc3OC)csc12)C1CCOCC1 [Example 75, Butyl-[3-(4-isopropoxymethyl-2,6-dimethoxy-phenyl)-6-methoxy-pyrazolo[5,1-b][1,3]thiazol-7-yl]-(tetrahydro-pyran-4-yl)amine]",74 nM
15,"CCCN(c1c(OC)nn2c(-c3c(OC)cc(C4CC4)cc3OC)csc12)C1CCOCC1 [Example 61, 3-(4-Cyclopropyl-2,6-dimethoxyphenyl)-6-methoxy-N-propyl-N-(tetrahydro-2H-pyran-4-yl)pyrazolo[5,1-b][1,3]thiazole-7-amine]",39 nM
16,"CCOc1nn2c(-c3c(OC)cc(COC)cc3OC)csc2c1N(CC1CCC1)C1CCOCC1 [Example 83, N-(Cyclobutylmethyl)-3-[2,6-dimethoxy-4-(methoxymethyl)phenyl]-6-ethoxy-N-(tetrahydro-2H-pyran-4-yl)-pyrazolo[5,1-b][1,3]thiazole-7-amine]",47 nM
